Data as given in US20230276792A1, “SELECTIVE HERBICIDES BASED ON SUBSTITUTED ISOXAZOLIN CARBOXAMIDES AND CLOQUINTOCET-MEXYL” (Bayer Aktiengesellschaft, priority 2020, published 2023).

Tests used:
Format in all cases: in vivo
[1] = system: spring wheat, TRZAS Triso; test: Safener seed treatment, pre-emergence herbicide application, crop damage; details: cloquintocet-mexyl 0.25 g a.i./kg seed
Procedure: (§1) For the safener seed treatment, sufficient seeds of the respective crops (spring wheat, TRZAS; spring barley, HORVS; maize, ZEAMA) were weighed into screw top glass bottles approximately twice the volume of the seeds.
(§2) The specified safeners, formulated as wettable powder (WP) were weighed out so that the specified rates (g a.i./kg seed) would be obtained, dissolved in water (1 ml water per 10 g of seeds), and added to the seeds to produce a slurry.
(§3) The bottles were capped and then placed in an overhead shaker (set at medium speed for ca. 60 minutes) so that the seeds were evenly coated with the slurry. The bottles were uncapped and the seeds were either placed on paper and dried for an interval of 3-4 hours prior to sowing, or directly sown. Seeds were placed in sandy loam soil in pots of a diameter of 7-8 cm, and covered with soil.
Pre-emergence application of the specified herbicides was done subsequently, on two sets of plants: • a) seed treatment with safener, as described above • b) no safener treatment
The herbicides were formulated as WP and was sprayed onto the soil surface as an aqueous suspension at an equivalent water application rate of 300 l/ha.
(§4) After application, the test plants were kept in the greenhouse under good growth conditions. At intervals up to 4 weeks after application (=28 days after treatment; DAT), % crop damage observed on the treated plants was scored visually in comparison to control plants that had not received any safener or herbicide treatment.
Values in the table below are mean values of at least 2 replicates.
(§5) Reduction [Difference]=herbicide damage without safener−herbicide damage with safener
(§6) Reduction [%]=(Reduction [Difference]*100)/herbicide damage without safener
a) Plant Species, Variety: TRZAS Triso, Safener (SAF): Cloquintocet-Mexyl

[2] = system: spring barley, HORVS Montoya; test: as above; details: 21 (Final) DAT; HER dose 15 g a.i./ha; cloquintocet-mexyl 0.25 g a.i./kg seed
Procedure: as §1, §2, §3
Pre-emergence application of the specified herbicides was done subsequently, on two sets of plants: • a) seed treatment with safener, as described above • b) no safener treatment […]
as §4, with “treatment. […]” for “treatment.”

[3] = system: spring wheat, TRZAS Triso; test: Safener seed treatment, post-emergence herbicide application, crop damage; details: 21 DAT; for HER effect + SAF [%]: cloquintocet-mexyl 0, 5 g a.i./kg seed; for HER effect [%]: without safener
Text: For safener seed treatment trials, sufficient seed amounts of the respective crops (spring wheat (TRZAS); spring barley (HORVS)) were weighed into screw cap glass bottles with a minimum volume trice of the seeds.
As a first step, specified safeners formulated as wettable powder (WP) or wettable granules (WG) were weighed out for the required dosages (g a.i./kg seed), corresponding to the seed amounts. The safener amounts were mixed with a coloured slurry blind formulation type, pre-diluted with milk at 3.5% fat rate (25 mgs slurry formulation plus 2 ml milk per 10 grams of seed). A tube roller was used for coating. The solutions were gradually pipetted each on the rotating seeds followed by coating for min. 3 hours until all liquid had been soaked up by the seeds. Thereafter, the coated seeds were put flat on open trays for drying over night at room temperature.
Treated seeds were then placed into pots (7 cm diameter) on the surface of sandy loam, pressed down, flat covered with additional soil and finally covered with sandy soil, also pressed down, watered, and kept under good growth conditions in a greenhouse, until the plants had reached 2-leaf-stage (BBCH 12).
At that stage, post-emergence application of the specified herbicides was done on: • a) pot sets containing plants with safener-coated seeds as described above, • b) as a reference, pot sets of plants without seed treatment.
The herbicides were formulated as wettable powder (WP). Equivalent to the spray area, compound amounts were weighed out and diluted related to the water application rate (300 l/ha) to an aqueous suspension plus additive (1 l/ha MERO). Dosage related equivalents were conventionally sprayed on trays with the potted plants.
After application, the test plants were kept under good growth conditions in a greenhouse. Assessment timings were 10 and 21 days after treatment (DAT) with the herbicide, by visual scoring of the crop damage in % (comparison of untreated with treated plants, either sprayed only with herbicide or with herbicide on plants with treated seeds).
as §5, §6
b) Plant Species, Variety: TRZAS Triso, Safener (SAF): Cloquintocet-Mexyl

[4] = 11 (Interim) DAT, HER dose 15 g a.i./ha
[5] = 21 (Final) DAT, HER dose 15 g a.i./ha

C=CC1(C(=O)NC2COC(C(=O)OC)C2)CC(c2cc(F)cc(F)c2)=NO1 (mixture of isomers) [Example 1.68]
Reduction [Difference] ([1]; 11 (Interim) DAT, HER dose 5 g a.i./ha): 45
Reduction [%] [1, 4]: 88%
Reduction [Difference] [1, 4]: 70
Reduction [Difference] ([1]; 21 (Final) DAT, HER dose 5 g a.i./ha): 45
Reduction [%] [1, 5]: 94%
Reduction [Difference] [1, 5]: 80
Reduction [Difference] [2]: 80
HER effect + SAF [%] ([3]; HER dose 1 g a.i./ha): 20%
HER effect [%] ([3]; HER dose 1 g a.i./ha): 80%
HER effect + SAF [%] ([3]; HER dose 4 g a.i./ha): 30%
HER effect [%] ([3]; HER dose 4 g a.i./ha): 85%
